The values below come from patent US8673943B2, “Fluorinated derivatives of deferiprone” (Apotex Technologies Inc., priority 2007, dated 2014).

SMILES strings stand for the structures.

The nature of series [1]: Chemical stability studies in aqueous media, monitored by HPLC. It is filed as physicochemical. The conditions noted are these: for stability in 50 mM phosphate buffer at pH 7.4 or aqueous 0.01 N NaOH: HPLC Method 1; for stability in aqueous 0.01 N HCl and de-ionized water at pH 5.6: freshly prepared solutions. As for the experimental part: (2) de-ionized water at pH 5.6;
(3) 50 mM phosphate buffer at pH 7.4; and […]

Series [2] is described as follows: In vivo pharmacokinetic (PK) and blood brain barrier (BBB) studies, cassette dosing. Details: species or system male Sprague-Dawley rats. The conditions noted are these: tail vein injection, rat; for AUC brain* / AUC: normalized to 2 mg/kg dose; for Kp at 5 min / Kp / AUC: male, Sprague-Dawley; for Kp at 5 min / Kp: brain/plasma, intravenous; for Kp at 5 min: read-out: Brain/Plasma ratio at 5 min; for Kp: read-out: AUC brain/AUC plasma; for AUC: iv, plasma. As for the experimental part: In vivo pharmacokinetic (PK) and blood brain barrier (BBB) studies were conducted in male Sprague-Dawley rats using cassette dosing. The topic of cassette dosing has been reviewed by Manitpisitkul, P. and White, R. E. (August 2004), Drug Discovery, Vol 9. No. 15, pp. 652-658. The mode of administration was through tail vein injection.

The conditions of series [3]: prior-art / published chelators; 1×10^−5 M chelator and 1×10^−6 M Fe(III); cited from earlier work.
Series [4] is classed as physicochemical. An excerpt: The term “log kBMC” refers to the logarithm of the chromatographic capacity factor (reference retention time) in BMC, a special type of HPLC (Escuder-Gilabert, L., et al., Journal of Chromatography B, 2004, 807, 193-201). This analytical technique was used to correlate the log kBMC of 31 reference drug substances with known experimentally determined log BB values. A linear regression mathematical equation log BB=a(log kBMC)+b was obtained from these reference drug substances wherein a and b are constants. The log kBMC of the compounds of the present invention was measured by BMC. The experimental log kBMC of the compounds of the present invention was fit into the log BB=a(log KBMC) b equation to obtain a calculated log BB value. The calculated log BB is an indicator of the BBB penetration property of the compounds of the present invention.
FIG. 1 provides a table illustrating the physical properties of selected compounds of formula (I) according to the present invention. […] The chromatographic capacity factor kBMC of 31 reference drug substances with known experimentally determined log BB values were recorded (FIGS. 2 and 3). […] We used the above equation to compute a calculated log BB value of the compounds of the present invention as an estimate of the BBB penetration properties of the compounds. Deferiprone is known to penetrate the BBB and has a calculated log BB value of −1.05. […]

The conditions of series [5]: pH 7.4; cited from earlier work.

Take `Cn1cc(O)c(=O)cc1CF` [(D)]: the “stability in aqueous solution” value in series [1] was “unstable”.
On to `Cc1cc(=O)c(O)c(C(O)C(F)(F)F)n1C` (stereo not drawn) [Apo6729, 3-hydroxy-1,6-dimethyl-2-(2,2,2-trifluoro-1-hydroxy-ethyl)-1H-pyridin-4-one], for which, in series [1] (0.1N HCl, 50 mM phosphate buffer at pH 7.4, 0.1 N NaOH, room temperature), the “time stable in 0.1N HCl, 50 mM phosphate buffer pH 7.4 and 0.1 N NaOH” value is reported as “at least 21 hrs”.
For `Cc1cc(=O)c(O)c(C(F)F)n1C` [(iv), 2-difluoromethyl-3-hydroxy-1,6-dimethyl-1H-pyridin-4-one], in series [1], the “stability in 50 mM phosphate buffer at pH 7.4 or aqueous 0.01 N NaOH” value was “almost instantaneously hydrolysed to their corresponding aldehydes”; the “stability in aqueous 0.01 N HCl and de-ionized water at pH 5.6” value is recorded as “stable”.
For `Cn1ccc(=O)c(O)c1C(F)F` [(v), 2-difluoromethyl-3-hydroxy-1-methyl-1H-pyridin-4-one], in series [1], the “stability in 50 mM phosphate buffer at pH 7.4 or aqueous 0.01 N NaOH” value is “almost instantaneously hydrolysed to their corresponding aldehydes”; the “stability in aqueous 0.01 N HCl and de-ionized water at pH 5.6” value is on record as “stable”; the “stability in pH 7.4 phosphate buffer and 0.01 M sodium hydroxide” value was “unstable”.
On to `Cn1ccc(=O)c(O)c1CC(F)(F)F` [Apo6825, 3-hydroxy-1-methyl-2-(2,2,2-trifluoro-ethyl)-1H-pyridin-4-one], for which, in series [2], the “AUC brain*” value turned out to be 2730 ng·h/mL, the Kp at 5 min is 0.46, the Kp was 0.6 and the AUC (commonly concentration integrated over time) stood at 4520 ng·h/mL. In addition, in series [2], the Kα was 0.68 h⁻¹, the Kβ worked out at 0.133 h⁻¹, the t1/2α was found to be 1.02 h and the t1/2β is given as 5.21 h.
Consider `Cc1c(O)c(=O)c(CC(F)(F)F)cn1C` [Apo6855, 3-Hydroxy-1,2-dimethyl-5-(2,2,2-trifluoro-ethyl)-1H-pyridin-4-one], for which, in series [2], the “AUC brain*” value turned out to be 580 ng·h/mL, the Kp at 5 min worked out at 0.5, the Kp came to 0.65 and the AUC was found to be 890 ng·h/mL. In series [2], this compound displayed a Kα of 2.37 h⁻¹, a Kβ of 0.136 h⁻¹, a t1/2α of 0.29 h and a t1/2β of 5.10 h.
In the case of `Cc1cc(=O)c(O)c(CF)n1C` [compound (C)], the “stability in aqueous solution” value in series [1] is “unstable”.
Turning to `Cn1cc(O)c(=O)cc1CF` [compound (vii), 2-fluoromethyl-5-hydroxy-1-methyl-1H-pyridin-4-one], in series [1] (50 mM phosphate buffer at pH 7.4, after 5 hrs), the “fraction of compound remaining” value is recorded as “about half”. Besides, the “time stable in MeOH” value in series [1] (MeOH) is listed as “at least 4 hrs”. Moreover, the “stability in aqueous 0.01 N NaOH” value in series [1] (aqueous 0.01 N NaOH) was “decomposed rapidly”. In addition, the “stability in pH 7.4 phosphate buffer and 0.01 M sodium hydroxide” value in series [1] is on record as “unstable”.
`CNC(=O)c1c(O)c(=O)cc(C)n1C` [CP502]: the “pFe(III) / pFe^3+” value in series [3] is given as 21.
Turning to `Cc1c(O)c(=O)ccn1C` [Deferiprone, 3-hydroxy-1,2-dimethyl-1H-pyridin-4-one], the “calculated log BB” value in series [4] is −1.05. Besides, in series [2], the “AUC brain*” value worked out at 860 ng·h/mL, the Kp at 5 min came to 0.45, the Kp was determined as 0.79 and the area under the curve (AUC) was 1080 ng·h/mL. In series [2], the Kα was determined as 1.36 h⁻¹, the Kβ worked out at 0.215 h⁻¹, the t1/2α came to 0.51 h and the t1/2β is reported as 3.22 h. Besides, the distribution coefficient in series [5] was 0.17.
